What was measured:
[1] = biological target: Prostaglandin E2 receptor EP2 subtype (Homo sapiens) (UniProt P43116); assay: Antagonist activity at EP2 receptor (unknown origin) expressed in rat C6 cells assessed as inhibition of PGE2-induced response; format: cell-based
Homo sapiens [2] = organism: Homo sapiens; assay: Selectivity index, ratio of KB for IP receptor (unknown origin) to KB for EP2 receptor (unknown origin)
Homo sapiens [3] = organism: Homo sapiens; assay: Selectivity index, ratio of KB for DP1 receptor (unknown origin) to KB for EP2 receptor (unknown origin)
[4] = biological target: Prostaglandin E2 receptor EP4 subtype (Homo sapiens) (UniProt P35408); assay: Antagonist activity at EP4 receptor (unknown origin) expressed in rat C6 cells assessed as inhibition of PGE2-induced response; format: cell-based
Prostaglandin E2 receptor EP4 subtype (Homo sapiens), sequence (P35408 whole entry): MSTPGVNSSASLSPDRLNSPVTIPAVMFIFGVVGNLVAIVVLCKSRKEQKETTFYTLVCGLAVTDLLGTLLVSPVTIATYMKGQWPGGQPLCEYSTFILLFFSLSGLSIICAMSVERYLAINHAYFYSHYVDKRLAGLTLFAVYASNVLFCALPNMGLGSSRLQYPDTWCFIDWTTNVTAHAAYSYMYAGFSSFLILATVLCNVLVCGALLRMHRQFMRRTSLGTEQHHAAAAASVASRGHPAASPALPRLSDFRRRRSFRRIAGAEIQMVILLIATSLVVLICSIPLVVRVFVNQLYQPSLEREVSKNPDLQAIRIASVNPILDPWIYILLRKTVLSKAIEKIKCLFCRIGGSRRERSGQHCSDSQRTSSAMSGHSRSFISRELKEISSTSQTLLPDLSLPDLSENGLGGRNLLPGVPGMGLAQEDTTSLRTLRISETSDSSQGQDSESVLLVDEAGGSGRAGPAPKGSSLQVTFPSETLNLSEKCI

C6 = assay: Cytotoxicity against rat C6 cells; format: cell-based; conditions: c6
Homo sapiens [5] = organism: Homo sapiens; assay: Selectivity index, ratio of KB for EP4 receptor (unknown origin) to KB for EP2 receptor (unknown origin)
[6] = biological target: T1, Prostaglandin D2 receptor (Homo sapiens) (UniProt Q13258); assay: Antagonist activity at DP1 receptor (unknown origin) expressed in rat C6 cells by TR-FRET assay; format: cell-based
T1 sequence (whole entry): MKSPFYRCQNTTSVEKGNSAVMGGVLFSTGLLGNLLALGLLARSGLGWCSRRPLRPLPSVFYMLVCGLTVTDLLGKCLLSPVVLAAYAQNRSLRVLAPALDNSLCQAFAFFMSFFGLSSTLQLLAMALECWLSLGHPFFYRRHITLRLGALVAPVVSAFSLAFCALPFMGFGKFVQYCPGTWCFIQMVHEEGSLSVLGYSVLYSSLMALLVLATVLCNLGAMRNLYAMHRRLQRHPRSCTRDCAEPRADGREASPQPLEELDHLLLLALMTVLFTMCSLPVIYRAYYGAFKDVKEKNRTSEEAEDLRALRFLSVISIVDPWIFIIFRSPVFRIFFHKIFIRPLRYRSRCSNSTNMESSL

[7] = biological target: Prostacyclin receptor (Homo sapiens) (UniProt P43119); assay: Antagonist activity at IP receptor (unknown origin) expressed in rat C6 cells by TR-FRET assay; format: cell-based
Prostacyclin receptor (Homo sapiens), sequence (P43119 whole entry): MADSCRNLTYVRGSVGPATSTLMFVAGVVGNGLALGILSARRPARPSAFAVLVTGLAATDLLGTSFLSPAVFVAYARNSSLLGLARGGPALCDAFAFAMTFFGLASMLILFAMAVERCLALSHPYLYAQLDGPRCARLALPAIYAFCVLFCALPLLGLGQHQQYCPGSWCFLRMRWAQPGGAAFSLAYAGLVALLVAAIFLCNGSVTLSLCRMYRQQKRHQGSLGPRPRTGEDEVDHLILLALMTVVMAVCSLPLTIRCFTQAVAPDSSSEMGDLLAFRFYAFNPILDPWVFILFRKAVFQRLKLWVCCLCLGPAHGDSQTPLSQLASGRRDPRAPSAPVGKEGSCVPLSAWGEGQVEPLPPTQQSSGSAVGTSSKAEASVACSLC

EP2 receptor = assay: Therapeutic index, ratio of CC50 for rat C6 cells to KB for EP2 receptor (unknown origin); format: cell-based; conditions: read-out: TI
[8] = Metabolic stability of the compound in human liver microsomes assessed as compound remaining at 10 uM after 15 mins; format: ADME; conditions: read-out: Stability
[9] = Metabolic stability of the compound in mouse liver microsomes assessed as compound remaining at 10 uM after 15 mins; format: ADME; conditions: read-out: Stability
[10] = Metabolic stability of the compound in human liver microsomes assessed as compound remaining at 10 uM after 30 mins; format: ADME; conditions: read-out: Stability
[11] = Aqueous solubility of the compound by nephelometry method; format: physicochemical; conditions: buffer
[12] = Metabolic stability of the compound in mouse liver microsomes assessed as compound remaining at 10 uM after 30 mins; format: ADME; conditions: read-out: Stability
[13] = Metabolic stability of the compound in mouse liver microsomes assessed as compound remaining at 10 uM after 60 mins; format: ADME; conditions: read-out: Stability
[14] = Metabolic stability of the compound in human liver microsomes assessed as compound remaining at 10 uM after 60 mins; format: ADME; conditions: read-out: Stability

Prostaglandin E2 receptor EP2 subtype (Homo sapiens), sequence (P43116 whole entry): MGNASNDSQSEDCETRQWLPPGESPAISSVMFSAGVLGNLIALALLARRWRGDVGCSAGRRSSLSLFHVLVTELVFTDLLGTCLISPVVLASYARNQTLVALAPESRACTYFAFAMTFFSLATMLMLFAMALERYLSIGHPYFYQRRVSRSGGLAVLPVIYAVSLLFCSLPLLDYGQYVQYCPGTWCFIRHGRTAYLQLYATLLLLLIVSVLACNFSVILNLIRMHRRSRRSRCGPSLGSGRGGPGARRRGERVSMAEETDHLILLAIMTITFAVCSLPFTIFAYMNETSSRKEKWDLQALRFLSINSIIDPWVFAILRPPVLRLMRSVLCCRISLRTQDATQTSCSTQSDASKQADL

Structure (SMILES)	Kb [1] [µM]	further results
Cc1cc2ccccc2n1CCNC(=O)c1ccc(N2CCN(C)CC2)c(F)c1	0.045	Ratio (Homo sapiens [2]): 1420; Ratio (Homo sapiens [3]): 22; Kb [4]: 4.76 µM; CC50 (C6): 300 µM; Ratio (Homo sapiens [5]): 106; Kb [6]: 0.98 µM; Kb [7]: 64 µM; selectivity ratio (EP2 receptor): 6660
CC1=Nc2ccccc2C1CCNC(=O)c1cnc(N2CCOCC2)nc1 (stereo unspecified)	0.28	
Cc1cc2ccccc2n1CCNC(=O)c1ccc2[nH]nnc2c1	0.0875	
Cc1cc2ccccc2n1CCNC(=O)c1cccc(S(N)(=O)=O)c1	> 1	
Cc1cc2ccccc2n1CCNC(=O)c1ccc(C2CCCN(C(=O)OC(C)(C)C)C2)cc1 (stereo unspecified)	0.095	
CC(=O)N1CCN(c2ccc(C(=O)NCCn3c(C)cc4ccccc43)cc2)CC1	0.0502	
CCN(CC)c1ccc(C(=O)NCCn2c(C)cc3ccccc32)cc1F	0.0046	
Cc1cc2ccccc2n1CCNC(=O)C1CCC(=O)N1 (stereo unspecified)	> 1	
COc1ccc(C(=O)NCCn2c(C)cc3ccccc32)cc1OC	0.0223	
Cc1cc2ccccc2n1CCNC(=O)c1cccnc1N	0.52	
CCN(CC)c1ccc(C(=O)NCCn2c(C(F)(F)F)cc3ccccc32)cc1	0.15	
Cc1[nH]c2ccccc2c1CCNC(=O)c1ccc(N(C)C)cc1	0.0108	remaining at […], 10 µM [8]: 34%; remaining at […], 10 µM [9]: < 1%; remaining at 0.5 h, 10 µM [10]: 17%; Kb [4]: 16.4 µM; CC50 (C6): 320 µM; solubility kinetic [11]: < 25 µM; remaining at 0.5 h, 10 µM [12]: 0%; remaining at 1 h, 10 µM [13]: 0%; Kb [6]: 3.61 µM; remaining at 1 h, 10 µM [14]: 4%; Kb [7]: 63.1 µM
COc1cc(C(=O)NCCn2c(C)cc3ccccc32)cc(OC)c1OC	> 1	
CCN(CC)c1ccc(C(=O)NCCn2cnc3ccccc32)cc1	> 1	
CCN(CC)c1ccc(C(=O)NCCn2c(C)nc3ccccc32)cc1	0.19	
Cc1cc2ccccc2n1CCNC(=O)c1cnc(Nc2ccccc2)nc1	0.0016	remaining at […], 10 µM [8]: 88%; remaining at […], 10 µM [9]: 71%; remaining at 0.5 h, 10 µM [10]: 67%; solubility kinetic [11]: < 25 µM; remaining at 0.5 h, 10 µM [12]: 59%; remaining at 1 h, 10 µM [13]: 35%; remaining at 1 h, 10 µM [14]: 50%
Cc1cc2cc(F)ccc2n1CCNC(=O)c1ccc(N2CCN(C)CC2)c(F)c1	0.0622	
Cc1cc2ccccc2n1CCNC(=O)C1CCC(c2ncccn2)CC1 (stereo unspecified)	0.38	
Cc1cc2ccccc2n1CCNC(=O)c1cccc(N2CCOCC2)c1	> 1	
Cc1cc2ccccc2n1CCNC(=O)c1cnc2ccc(F)cc2c1O	0.175	
CCN(CC)c1ccc(C(=O)NCCn2c(C)cc3ccccc32)cc1C(F)(F)F	0.31	
Cc1[nH]c2ccccc2c1CCNC(=O)c1ccc(N2CCOCC2)c(F)c1	0.066	
CCNc1ccc(C(=O)NCCn2c(C)cc3ccccc32)cc1C(F)(F)F	0.0202	
Cc1cc2cc(F)ccc2n1CCNC(=O)c1ccc(N2CCOCC2)cc1	0.0149	

Structure (SMILES)	Kb [1] [µM]	further results
Cc1cc2ccccc2n1CCNC(=O)c1ccc(CN2CCN(C)CC2)cc1	> 1	
CCN(CC)c1ccc(C(=O)OCCn2c(C)cc3ccccc32)cc1	> 1	
Cc1[nH]c2ccccc2c1CCNC(=O)c1ccc(N2CCN(C)CC2)cc1	0.135	
Cc1[nH]c2ccccc2c1CCNC(=O)c1ccc(N2CCOCC2)cc1		remaining at […], 10 µM [8]: 75%; remaining at […], 10 µM [9]: 37%; remaining at 0.5 h, 10 µM [10]: 58%; Kb [4]: 75.6 µM; CC50 (C6): 311 µM; solubility kinetic [11]: < 25 µM; remaining at 0.5 h, 10 µM [12]: 10%; remaining at 1 h, 10 µM [13]: 0.5%; Kb [6]: 7.79 µM; remaining at 1 h, 10 µM [14]: 40%; Kb [7]: 85 µM; selectivity ratio (EP2 receptor): 10900
Cc1cc2ccccc2n1CCNC(=O)c1cnc(N)nc1	> 1	
CC(=O)Nc1ccc(C(=O)NCCc2c(C)[nH]c3ccccc23)cc1	0.138	
O=C(NC1CCc2[nH]c3ccccc3c2C1)c1ccc(N2CCOCC2)cc1 (stereo unspecified)	> 1	
Cc1cc2ccccc2n1CCNC(=O)c1cnc(N2CCOCC2)nc1	0.0765	
Cc1cc2ccccc2n1CCNC(=O)c1ccc(NC(=O)c2ccccc2F)cc1	0.051	
Cc1cc2ccccc2n1C1CCCN(C(=O)c2ccc(N3CCOCC3)cc2)C1 (stereo unspecified)	> 1	
Cc1cc2ccccc2n1CCNC(=O)c1ccc2c(c1)n(C)c(=O)n2C	0.0209	Ratio (Homo sapiens [2]): 1200; Ratio (Homo sapiens [3]): 300; Kb [4]: 36.1 µM; CC50 (C6): 154 µM; Ratio (Homo sapiens [5]): 1730; Kb [6]: 6.29 µM; Kb [7]: 25.2 µM; selectivity ratio (EP2 receptor): 7370
Cc1cc2ccccc2n1CCNC(=O)c1ccc(N2CCCN(C)CC2)cc1	0.148	
CCN(CC)C(=O)c1ccc(C(=O)NCCc2c(C)[nH]c3ccccc23)cc1	> 1	
Cc1cc2ccccc2n1CCNC(=O)c1cccc(N2CCN(C)CC2)c1	0.77	
O=C(NCCn1c(C(F)(F)F)cc2ccccc21)c1ccc(N2CCOCC2)cc1	0.12	
CCN(CC)c1ccc(C(=O)NCCn2c(C)cc3ccccc32)cc1OC	0.0612	
Cc1cc2ccccc2n1CCNC(=O)c1nc2cc(F)ccc2[nH]1	0.13	
Cc1cc2ccccc2n1CCNC(=O)c1ccc(C#N)cc1F	0.28	
CCOC(=O)C1CCN(c2ccc(C(=O)NCCn3c(C)cc4ccccc43)cc2)CC1	0.5	
Cc1[nH]c2ccccc2c1CCNC(=O)c1ccc(N2CCCCC2)cc1	0.0198	
CCNc1ncc(C(=O)NCCn2c(C)cc3ccccc32)cn1	0.0578	
CCNc1ncc(C(=O)NCCC2C(C)=Nc3ccccc32)cn1 (stereo unspecified)	0.155	
Cc1cc2ccccc2n1CCNC(=O)c1ccc2[nH]c(=S)[nH]c(=O)c2c1	0.0841	

Now from value to compound, other results behind:

Kb [1] [µM]	Structure (SMILES)	further results
0.12	Cc1cc2ccccc2n1CCNC(=O)c1ccc(C2CCCCC2)cc1	
> 1	CCN(CC)c1ccc(C(=O)NCCCn2c(C)cc3ccccc32)cc1	
0.0098	Cc1cc2ccccc2n1CCNC(=O)c1ccc(N(C)C)cc1	remaining at […], 10 µM [8]: 27%; remaining at […], 10 µM [9]: < 1%; remaining at 0.5 h, 10 µM [10]: 7%; Kb [4]: 51 µM; CC50 (C6): 310 µM; solubility kinetic [11]: < 25 µM; remaining at 0.5 h, 10 µM [12]: < 1%; remaining at 1 h, 10 µM [13]: < 1%; Kb [6]: 6.43 µM; remaining at 1 h, 10 µM [14]: < 1%; Kb [7]: 4.7 µM
0.0868	COc1ccc(C(=O)NCCn2c(C)cc3ccccc32)cc1F	
> 1	Cc1cc2ccccc2n1CCNC(=O)c1ccc(O)cc1	
> 1	Cc1cc2ccccc2n1CCNC(=O)c1ccc(OC2CCNCC2)cc1	
0.15	Cc1cc2ccccc2n1CCNC(=O)c1ccc(C(N)=O)cc1	
0.21	Cc1cc2ccccc2n1CCNC(=O)c1ccc(N)cc1	
0.097	CC(=O)Nc1ccc(C(=O)NCCn2c(C)cc3ccccc32)cc1	
0.0422	Cc1cc2ccccc2n1CCNC(=O)c1ccc(-n2cnnn2)cc1	remaining at […], 10 µM [8]: 75%; remaining at […], 10 µM [9]: 50%; remaining at 0.5 h, 10 µM [10]: 54%; solubility kinetic [11]: < 25 µM; remaining at 0.5 h, 10 µM [12]: 26%; remaining at 1 h, 10 µM [13]: 7.5%; remaining at 1 h, 10 µM [14]: 26%
0.97	Cc1cc2ccccc2n1CCNC(=O)c1ccc(CN2CCOCC2)cc1	
0.53	CC(=O)Nc1ccc(C(=O)NCCn2c(C)cc3ccccc32)cc1F	
0.064	Cc1cc2ccccc2n1CCNC(=O)c1ccc(N2CCN(C)CC2)cc1	
0.1	Cc1cc2ccccc2n1CCNC(=O)c1ccc(C(=O)OC(C)(C)C)cc1	
0.8	CCN(CC)C(=O)c1ccc(C(=O)NCCn2c(C)cc3ccccc32)cc1	
> 1	Cc1cc2ccccc2n1CCNC(=O)c1ccc(C2CCCNC2)cc1 (stereo unspecified)	

Kb [1] [µM]	Structure (SMILES)	further results
0.0155	CCNc1ccc(C(=O)NCCn2c(C)cc3ccccc32)cc1	
1.22	Cc1cc2ccccc2n1CCNC(=O)c1ccc(CCN)cc1	
0.0303	Cc1cc2ccccc2n1CCNC(=O)c1ccc(N2CCC(C)CC2)cc1	
0.0756	COc1ccc(C(=O)NCCn2c(C)cc3ccccc32)cc1	
0.41	Cc1cc2ccccc2n1CCNC(=O)c1ccc(N2CCNCC2)cc1	
> 1	Cc1cc2ccccc2n1CCNC(=O)c1ccc(NC(=N)N)cc1	
0.0181	Cc1cc2ccccc2n1CCNC(=O)c1ccc(N(C)C)c(F)c1	
0.69	Cc1cc2ccccc2n1CCNC(=O)c1ccc(CN)cc1	
0.14	Cc1cc2ccccc2n1CCNC(=O)c1ccc(C#N)cc1	
0.084	Cc1cc2ccccc2n1CCNC(=O)c1ccc(CNC(=O)OC(C)(C)C)cc1	
0.486	Cc1cc2ccccc2n1CCNC(=O)c1ccc(S(N)(=O)=O)cc1	
0.14	Cc1cc2ccccc2n1CCNC(=O)c1ccc(C#N)c(F)c1	
0.15	CC(=O)Oc1ccc(C(=O)NCCn2c(C)cc3ccccc32)cc1	
0.0322	Cc1cc2ccccc2n1CCNC(=O)c1ccc(-n2nn[nH]c2=S)cc1	
> 1	Cc1cc2ccccc2n1CCNC(=O)c1ccc(C(=O)N(C)C)cc1	

From ChEMBL document CHEMBL3286257, “Development of second generation EP2 antagonists with high selectivity” (Eur J Med Chem, 2014)
